Laboratory results as given in DBAASP.
In brackets after ≈: the same amount, converted by molar mass.

Columns and labels:
Test in all cases: ≥ marks a high value that may be exact or a test limit, other limits are often not marked, values filed in µg/mL are converted to µM
[1] = system: Pseudomonas aeruginosa IFO 12582
[2] = system: Staphylococcus aureus IFO 12732
[3] = system: Escherichia coli IFO 14237
[4] = system: Bacillus subtilis IFO 3037
[5] = system: Pseudomonas aeruginosa ATCC 15692
[6] = system: Streptococcus mutans JM11
[7] = system: Staphylococcus epidermidis ATCC 35984
[8] = system: Staphylococcus aureus Newman
[9] = system: Klebsiella pneumoniae KAY 2026
[10] = system: Escherichia coli DH5alpha
[11] = system: Batrachochytrium dendrobatidis
[12] = system: Escherichia coli ATCC 25922
Staphylococcus aureus MR = system: Staphylococcus aureus MR
[13] = system: Escherichia coli KpC+002101123
[14] = system: Pseudomonas aeruginosa ATCC 27853
[15] = system: Escherichia coli KpC+001812446
[16] = system: Staphylococcus aureus ATCC 25923
[17] = system: Klebsiella pneumoniae KpC+001825971
[18] = system: Klebsiella pneumoniae ATCC 13883
[19] = system: Staphylococcus aureus 710A
Escherichia coli ML-35 = system: Escherichia coli ML-35
[20] = system: Salmonella enterica subsp. enterica serovar Typhimurium ATCC 14028
Bacillus megaterium Bm11 = system: Bacillus megaterium Bm11
[21] = system: Staphylococcus aureus ATCC 9144
[22] = system: Corynebacterium glutamicum ATCC 13032
Aureobasidium pullulans = system: Aureobasidium pullulans
[23] = system: Candida albicans ATCC 10231
[24] = system: Franconibacter helveticus DSM 18390
[25] = system: Staphylococcus xylosus DSM 20287
[26] = system: Bacillus subtilis DSM 347
[27] = system: Escherichia coli DSM 1116
[28] = system: Listeria monocytogenes CMCC 54004
Escherichia coli UB1005 = system: Escherichia coli UB1005
[29] = system: Staphylococcus aureus CMCC 26074
[30] = system: Salmonella enterica subsp. enterica serovar Pullorum C79-13
[31] = system: Salmonella enterica subsp. enterica serovar Typhi CMCC 50071
[32] = system: Cronobacter sakazakii ATCC 29544
[33] = system: Bacillus cereus CMCC 6303
[34] = system: Salmonella enterica subsp. enterica CMCC 47020
[35] = system: Salmonella enterica subsp. enterica serovar Typhimurium C77-31

How did the MIC [1] turn out when `CC[C@H](C)[C@H](NC(=O)[C@H](CC(N)=O)NC(=O)[C@H](CC(C)C)NC(=O)[C@H](CCCCN)NC(=O)[C@@H](NC(=O)[C@@H](NC(=O)[C@H](CC(=O)O)NC(=O)[C@@H](N)Cc1ccccc1)[C@@H](C)CC)[C@@H](C)O)C(=O)N[C@@H](CCCCN)C(=O)N[C@@H](CCCCN)C(=O)N[C@@H](CC(C)C)C(=O)N[C@H](C(=O)N[C@@H](CCCCN)C(=O)N[C@@H](C)C(=O)N[C@H](C(=O)N[C@H]1CSSC[C@@H](C(=O)N[C@@H](CCCCN)C(=O)N[C@H](C(=O)N[C@@H](CC(C)C)C(=O)N[C@@H](Cc2ccccc2)C(=O)N[C@@H](CC(=O)O)C(=O)N[C@@H](CCCCN)C(=O)N[C@@H](CCCCN)C(=O)N[C@@H](CCCCN)C(=O)N[C@@H](CCC(N)=O)C(=O)N[C@@H](CCC(=O)O)C(=O)O)C(C)C)NC(=O)[C@H](CCSC)NC(=O)[C@H](CO)NC(=O)[C@H](C)NC(=O)CNC(=O)[C@H](CCCCN)NC(=O)[C@H](CO)NC(=O)[C@H]([C@@H](C)CC)NC(=O)[C@H](C(C)C)NC(=O)[C@H](CCCCN)NC1=O)[C@@H](C)O)[C@@H](C)O` [FDITKLNIKKLTKATCKVISKGASMCKVLFDKKKQE] was run?
The MIC was 25 µM (≈ 102 µg/mL).

What about the MIC [2] of the same compound?
Its MIC is 6.25 µM (≈ 25.5 µg/mL).

What about the MIC [3] of the same compound?
The MIC was 6.25 µM (≈ 25.5 µg/mL).

What about the MIC [4] of the same compound?
The MIC was ≥ 50 µM.

With `CC[C@H](C)[C@H](NC(=O)[C@@H](N)Cc1ccccc1)C(=O)N[C@@H](CCCN=C(N)N)C(=O)N[C@@H](CCCCN)C(=O)N[C@@H](Cc1ccccc1)C(=O)N[C@@H](CC(C)C)C(=O)N[C@@H](CCCCN)C(=O)N[C@@H](CCCCN)C(=O)N[C@@H](Cc1c[nH]c2ccccc12)C(=O)N[C@@H](CC(C)C)C(=O)N[C@@H](CC(C)C)C(N)=O` [FIRKFLKKWLL] as the compound, how does the MIC [5] read?
The MIC was 14.4 µM (≈ 21.5 µg/mL).

What about the MIC [6] of the same compound?
The MIC was 2.86 µM (≈ 4.26 µg/mL).

What about the MIC [7] of the same compound?
The MIC was 5.11 µM (≈ 7.62 µg/mL).

What about the MIC [8] of the same compound?
The MIC was 5.62 µM (≈ 8.39 µg/mL).

What about the MIC [9] of the same compound?
Its MIC is 2.98 µM (≈ 4.44 µg/mL).

And the MIC [10]?
Its MIC is 5.47 µM (≈ 8.16 µg/mL).

Which MIC [11] does the source give for `CC[C@H](C)[C@H](NC(=O)[C@@H](NC(=O)[C@@H]1CCCN1C(=O)[C@H](CC(C)C)NC(=O)[C@@H](N)Cc1ccccc1)[C@@H](C)CC)C(=O)N[C@@H](C)C(=O)N[C@@H](CO)C(=O)N[C@@H](CC(C)C)C(=O)N[C@@H](CC(C)C)C(=O)NCC(=O)N[C@@H](CCCCN)C(=O)N[C@@H](CC(C)C)C(=O)N[C@@H](CC(C)C)C(N)=O` [FLPIIASLLGKLL] here?
Its MIC is 28.6 µM (≈ 40 µg/mL).

What does the source list for `CC[C@H](C)[C@H](NC(=O)[C@@H](NC(=O)[C@H](CO)NC(=O)[C@H](C)NC(=O)[C@@H](NC(=O)[C@H](CCCCN)NC(=O)[C@H](CCCCN)NC(=O)[C@@H](NC(=O)[C@@H](NC(=O)[C@H](CC(=O)O)NC(=O)[C@H](Cc1ccccc1)NC(=O)[C@H](CC(C)C)NC(=O)CNC(=O)[C@H](Cc1cnc[nH]1)NC(=O)CNC(=O)CN)C(C)C)[C@@H](C)CC)C(C)C)C(C)C)C(=O)NCC(=O)NCC(=O)N[C@@H](CC(C)C)C(N)=O` [GGHGLFDVIKKVASVIGGL]?
MIC [12]: 34 µM (≈ 63.5 µg/mL); MIC (Staphylococcus aureus MR): 17 µM (≈ 31.7 µg/mL); MIC [13]: 9 µM (≈ 16.8 µg/mL); MIC [14]: > 34 µM; MIC [15]: ≥ 34 µM; MIC [16]: 9 µM (≈ 16.8 µg/mL); MIC [17]: ≥ 34 µM; MIC [18]: ≥ 34 µM

Which results are given for `CC[C@H](C)[C@H](NC(=O)[C@H](CCCCN)NC(=O)[C@H](CCCCN)NC(=O)[C@H](CC(C)C)NC(=O)[C@H](CC(C)C)NC(=O)CN)C(=O)NCC(=O)N[C@@H](CCCCN)C(=O)N[C@@H](CCCCN)C(=O)N[C@@H](C)C(=O)N[C@@H](CCCCN)C(=O)N[C@@H](CCCCN)C(=O)N[C@@H](C)C(=O)NCC(=O)N[C@@H](CCCCN)C(=O)N[C@@H](CCCCN)C(=O)N[C@@H](CC(C)C)C(=O)NCC(=O)N[C@@H](Cc1ccc(O)cc1)C(N)=O` [GLLKKIGKKAKKAGKKLGY]?
MIC [19]: ≥ 32 µM; MIC (Escherichia coli ML-35): 4 µM (≈ 8.11 µg/mL); MIC [20]: > 32 µM; MIC [14]: 16 µM (≈ 32.5 µg/mL); MIC (Bacillus megaterium Bm11): ≥ 32 µM

Which results are given for `CC(C)[C@H](NC(=O)[C@H](CCCCN)NC(=O)[C@H](C)NC(=O)[C@@H](NC(=O)[C@@H](NC(=O)[C@H](CCCN=C(N)N)NC(=O)[C@H](CCCN=C(N)N)NC(=O)[C@H](Cc1c[nH]c2ccccc12)NC(=O)[C@H](Cc1c[nH]c2ccccc12)NC(=O)CN)[C@@H](C)O)C(C)C)C(=O)N[C@@H](CCCN=C(N)N)C(=O)N[C@@H](CCCCN)C(N)=O` [GWWRRTVAKVRK]?
MIC [21]: 12.5 µM (≈ 19.3 µg/mL); MIC [22]: 0.4 µM (≈ 0.617 µg/mL); MIC [12]: 3.1 µM (≈ 4.78 µg/mL); MIC (Aureobasidium pullulans): 12.5 µM (≈ 19.3 µg/mL); MIC [14]: 1.6 µM (≈ 2.47 µg/mL); MIC [23]: 6.3 µM (≈ 9.71 µg/mL)

For `CC[C@H](C)[C@H](N)C(=O)N[C@@H](C)C(=O)NCC(=O)N[C@@H](CCCCN)C(=O)N[C@H](C(=O)N[C@@H](C)C(=O)N[C@@H](CCCCN)C(=O)N[C@H](C(=O)N[C@@H](C)C(=O)NCC(=O)N[C@@H](CCCCN)C(=O)N[C@H](C(=O)N[C@@H](C)C(=O)N[C@@H](CCCCN)C(=O)N[C@H](C(=O)N[C@@H](C)C(=O)NCC(=O)N[C@@H](CCCCN)C(=O)N[C@H](C(=O)N[C@@H](C)C(=O)N[C@@H](CCCCN)C(=O)N[C@H](C(=O)N[C@@H](C)C(=O)NCC(=O)N[C@@H](CCCCN)C(=O)N[C@H](C(=O)N[C@@H](C)C(N)=O)[C@@H](C)CC)[C@@H](C)CC)[C@@H](C)CC)[C@@H](C)CC)[C@@H](C)CC)[C@@H](C)CC)[C@@H](C)CC` [IAGKIAKIAGKIAKIAGKIAKIAGKIA], which MIC [24] is on record?
The MIC was 1.08 µM (≈ 2.83 µg/mL).

And the MIC [25]?
Its MIC is 0.764 µM (≈ 2 µg/mL).

And the MIC [26]?
The MIC was 1.08 µM (≈ 2.83 µg/mL).

What about the MIC [27] of the same compound?
The MIC was 2.16 µM (≈ 5.65 µg/mL).

Which MIC [28] does the source give for `CC[C@H](C)[C@H](NC(=O)[C@H](CCCN=C(N)N)NC(=O)[C@H](CCCCN)NC(=O)[C@H](Cc1c[nH]c2ccccc12)NC(=O)[C@@H](N)CCCN=C(N)N)C(=O)N[C@H](C(=O)N[C@H](C(=O)N[C@H](C(=O)N[C@@H](CCCN=C(N)N)C(=O)N[C@@H](CCCCN)C(=O)N[C@@H](CCCN=C(N)N)C(=O)N[C@@H](CCCN=C(N)N)C(N)=O)[C@@H](C)CC)C(C)C)C(C)C` [RWKRIVVIRKRR] here?
Its MIC is ≥ 128 µM.

And the MIC (Escherichia coli UB1005)?
Its MIC is ≥ 256 µM.

And the MIC [29]?
Its MIC is ≥ 256 µM.

What about the MIC [30] of the same compound?
Its MIC is ≥ 256 µM.

What about the MIC [20] of the same compound?
The MIC was 128 µM (≈ 213 µg/mL).

What about the MIC [31] of the same compound?
The MIC was ≥ 128 µM.

And the MIC [16]?
Its MIC is > 256 µM.

What about the MIC [32] of the same compound?
The MIC was ≥ 256 µM.

And the MIC [33]?
The MIC was ≥ 128 µM.

What about the MIC [34] of the same compound?
Its MIC is ≥ 256 µM.

What about the MIC [35] of the same compound?
The MIC was ≥ 256 µM.
